In experiment [1] the test system is Ba/F3 Bcr-Abl^T315I cells. The experiment in a line: Cell proliferation analysis, Ba/F3 Bcr-Abl T315I. It is filed as cell-based. The note with it: Mus musculus, BaF3, 72 h; 3 days, CellTiter-Glo; read-out: IC50 (nM) Ba/F3 BCR-ABL^T315. As for the experimental part: (§1) The inhibitory effect of the example compounds on Ba/F3 parental, Ba/F3 Bcr-Abl^T315I, K562, Ba/F3 KIF5B-RET, BaF3 FLT3-ITD cell activity was determined.
(§2) Materials and reagents: RPMI-1640 medium (GIBCO, Catalog No. A10491-01), fetal bovine serum (GIBCO, Catalog No. 10099141), antibiotics (Penicillin-Streptomycin), IL-3(PeproTech), promycin; cell lines: Ba/F3 parental, Ba/F3 Bcr-Abl^T315I, Ba/F3 KIF5B-RET, BaF3 FLT3-ITD, (purchased from American type culture collection, ATCC), K562 live cell detection kit CellTiter-Glo4(Promega, Catalog No. G7572), 96-well black wall transparent flat bottom cell culture plate (Corning, Catalog No. 3340).
(§3) Test method: 1. Preparation of cell plate: Ba/F3 parental, Ba/F3 Bcr-Abl^T315I K563, Ba/F3 KIFSB-RET, BaF3 FLT3-ITD cells were respectively seeded in 96-well plates, and 8 ng/ml IL-3 was added to the Ba/F3 cells, and the cell plates were placed in a carbon dioxide incubator and cultured overnight. 2. The test compounds were dissolved in DMSO, 9 compound concentrations were made with a 3.16-fold gradient dilution in triplicate. 3. Treatment of the cells with compounds: The compounds were transferred to the cell plate with a starting concentration of 10 μM. The cell plate was placed in a carbon dioxide incubator for 3 days. 4. Detection: CellTiter-Glo agent was added to the cell plate, and incubated at room temperature for 30 minutes to stabilize the luminous signal. PerkinElmer Envision multi-label analyzer was used for reading, wherein A represents IC50≤50 nM, B represents IC50 is 50-100 nM, C represents IC50 is 100-500 nM, D represents IC50 is 500-1000 nM, […].
(Cellular ATP, detected with luciferase, serves as a proxy for viable cell number.)

The target of the next experiment is ABL (Homo sapiens (Human), UniProt P00519). In words: Biochemical kinase analysis, ABL. The note with it: kinase inhibition assay. As for the experimental part: (§4) Reagents and materials: ABL (ThermoFisher, Cat. No. PV3585), ABL^T315I(Thermo Fisher, Cat. No. PR7429B), Ret (Carna, Cat. No. 08-159-10 ug), RET^V804M, Active (Signalchem, Cat. No. R02-12GG), ATP (Sigma, Cat. No. A7699-1G), DMSO (Sigma, Cat. No. D2650), 96-well plate (Corning, Cat. No. 3365), 384-well plate (Greiner, Cat. No. 784076), buffer solution (Thermo Fisher, Cat. No. PR4876B).
(§5) Compound formulation: The test compounds were dissolved in DMSO to prepare a 20 mM stock solution. Before use, the compounds were diluted in DMSO to 0.1 mM, and diluted into 11 concentrations with a 3-fold gradient. When addition, dilutions of 4-fold final concentration were then made with buffer solution.
(§6) Kinase assay method: After preparing the buffer, the enzyme was mixed with pre-formulated and diluted compounds of different concentrations in duplicate for each concentration, and placed at room temperature for 30 minutes. The corresponding substrate and ATP were added thereto, and reacted at room temperature for 60 minutes (both a negative and a positive control were set). After the reaction, antibody was added for detection, Evnvision detection was carried out after 60 minutes incubation at room temperature, and data was collected. Data analysis and fitting were made according to XLfit5 software.

The subject of another experiment is K562 cells. In words: Cell proliferation analysis, K562. The format is cell-based. Particulars: Homo sapiens, K562, 72 h; 3 days, CellTiter-Glo. As for the experimental part: as §1, §2, §3
In the next experiment the test system is Ba/F3 parental cells. In words: Cell proliferation analysis, Ba/F3 parental. The format is cell-based. Particulars: Mus musculus, BaF3, 72 h; 3 days, CellTiter-Glo, 8 ng/ml IL-3. As for the experimental part:
as §1, §2, §3

Another experiment concerns Ba/F3 BCR-ABL cells. In words: Cell proliferation analysis, Ba/F3 BCR-ABL. The format is cell-based. The note with it: Mus musculus, BaF3, 72 h; 3 days, CellTiter-Glo. How it is done: [Worded in the source for another variant; this variant is reported under the same test.] as §1, §2, §3
The next experiment addresses ABL^T315I (Homo sapiens (Human), UniProt P00519, T315I). In words: Biochemical kinase analysis, ABL T315I. The note with it: kinase inhibition assay. As for the experimental part: as §4, §5, §6
The target in another experiment is Ret (Homo sapiens (Human), UniProt P07949). In words: Biochemical kinase analysis, Ret. The note with it: kinase inhibition assay. How it is done: as §4, §5, §6
Ret, sequence (P07949 29-1114): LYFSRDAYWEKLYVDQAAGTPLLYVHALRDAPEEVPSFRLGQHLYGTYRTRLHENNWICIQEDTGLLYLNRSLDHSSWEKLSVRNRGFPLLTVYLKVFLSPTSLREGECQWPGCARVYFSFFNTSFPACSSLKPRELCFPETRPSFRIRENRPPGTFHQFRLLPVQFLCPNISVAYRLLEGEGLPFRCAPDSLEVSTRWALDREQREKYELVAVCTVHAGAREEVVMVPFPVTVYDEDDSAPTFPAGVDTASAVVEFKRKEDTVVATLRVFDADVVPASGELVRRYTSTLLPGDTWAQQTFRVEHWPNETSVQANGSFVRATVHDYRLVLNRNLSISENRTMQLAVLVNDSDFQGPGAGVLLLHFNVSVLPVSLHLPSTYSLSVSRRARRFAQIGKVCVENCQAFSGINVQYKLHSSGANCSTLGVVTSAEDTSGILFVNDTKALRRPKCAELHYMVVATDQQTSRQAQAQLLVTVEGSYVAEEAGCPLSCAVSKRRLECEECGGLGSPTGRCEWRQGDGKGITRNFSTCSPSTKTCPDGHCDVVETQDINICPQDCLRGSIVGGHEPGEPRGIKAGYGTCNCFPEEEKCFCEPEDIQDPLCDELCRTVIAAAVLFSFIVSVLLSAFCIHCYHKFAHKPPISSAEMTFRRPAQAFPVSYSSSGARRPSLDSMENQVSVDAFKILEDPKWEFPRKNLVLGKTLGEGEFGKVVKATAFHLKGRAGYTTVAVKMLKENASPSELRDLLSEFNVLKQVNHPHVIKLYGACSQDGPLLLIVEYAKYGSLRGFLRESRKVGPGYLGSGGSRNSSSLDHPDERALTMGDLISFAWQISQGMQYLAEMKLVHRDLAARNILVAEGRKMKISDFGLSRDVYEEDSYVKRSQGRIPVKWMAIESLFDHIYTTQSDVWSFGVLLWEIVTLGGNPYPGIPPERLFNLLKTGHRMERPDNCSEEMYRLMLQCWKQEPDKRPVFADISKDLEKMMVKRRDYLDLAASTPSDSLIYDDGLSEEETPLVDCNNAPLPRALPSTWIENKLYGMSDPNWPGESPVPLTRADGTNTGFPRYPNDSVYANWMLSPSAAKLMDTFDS
The next experiment relates to Ba/F3 KIF5B-RET cells. In words: Cell proliferation analysis, Ba/F3 KIF5B-RET. It is filed as cell-based. The note with it: Mus musculus, BaF3, 72 h; 3 days, CellTiter-Glo. How it is done: as §1, §2, §3
For the next experiment, the target named is RET^V804M (Homo sapiens (Human), UniProt P07949, V804M). In words: Biochemical kinase analysis, RET V804M. The note with it: kinase inhibition assay. As for the experimental part:
as §4, §5, §6

The next experiment concerns BaF3 FLT3-ITD cells. The experiment in a line: Cell proliferation analysis, BaF3 FLT3-ITD. The note with it: Ba/F3 FLT3-ITD, 72 h; 3 days, CellTiter-Glo. The format is cell-based. How it is done: as §1, §2, §3

RET^V804M, sequence (P07949 29-1114 V804M): as the sequence (P07949 29-1114) above, with V776M counted along it

As for `Cc1ccc(NC(=O)c2ccc(C)c(C(F)(F)F)c2)cc1C#Cc1cnc2c(Nc3cnn(C)c3)ccnn12` [Example 13, 4-methyl-N-(4-methyl-3-((8-((1-methyl-1H-pyrazol-4-yl)amino)imidazo[1,2-b]pyridazin-3-yl)ethynyl)phenyl)-3-(trifluoromethyl)benzamide], the IC50 in [1] was determined as 162 nM; against ABL, 0.00988 µM; with K562 cells it was 1.3 nM; in the experiment with Ba/F3 parental cells, 1220 nM; in the experiment with Ba/F3 BCR-ABL cells, 15.6 nM; at ABL^T315I, 0.0672 µM.

Regarding `Cc1ccc(NC(=O)c2cc(C(C)(C)C)on2)cc1C#Cc1cnc2c(Nc3cnn(C)c3)nccn12` [Example 6, 5-(tert-butyl)-N-(4-methyl-3-((8-((1-methyl-1H-pyrazol-4-yl)amino)imidazo[1,2-a]pyrazin-3-yl)ethynyl)phenyl)isoxazole-3-carboxamide], the IC50 is 0.0016 µM on ABL; 6.56 nM in the experiment with K562 cells; 5230 nM in the experiment with Ba/F3 parental cells; 9.61 nM in the experiment on Ba/F3 BCR-ABL cells; 0.065 µM against ABL^T315I.

With `COCCn1cc(Nc2nccn3c(C#Cc4cc(NC(=O)c5cc(C(C)(C)C)on5)ccc4C)cnc23)cn1` [Example 10, 5-(tert-butyl)-N-(3-((8-((1-(2-methoxyethyl)-1H-pyrazol-4-yl)amino)imidazo[1,2-a]pyrazin-3-yl)ethynyl)-4-methylphenyl)isoxazole-3-carboxamide], the IC50 in [1] stood at 56.1 nM; on ABL, 0.0027 µM; with K562 cells it was 1.27 nM; in the experiment with Ba/F3 parental cells, 2680 nM; in the experiment with Ba/F3 BCR-ABL cells it was 17.3 nM.

Regarding `Cc1ccc(NC(=O)Nc2ccc(Cl)c(C(F)(F)F)c2)cc1C#Cc1cnc2c(Nc3cnn(C)c3)nccn12` [Example 7, 1-(4-chloro-3-(trifluoromethyl)phenyl)-3-(4-methyl-3-((8-((1-methyl-1H-pyrazol-4-yl)amino)imidazo[1,2-a]pyrazin-3-yl)ethynyl)phenyl)urea], the values for the IC50 (in [1]; with K562 cells; with Ba/F3 parental cells) were 291 nM, 4.53 nM and 620 nM, respectively.

On to `Cc1ccc(NC(=O)c2ccc(CN3CCN(C)CC3)c(C(F)(F)F)c2)cc1C#Cc1cnc2c(Nc3cnn(C)c3)nccn12` [Example 5, N-(4-methyl-3-((8-((1-methyl-1H-pyrazol-4-yl)amino)imidazo[1,2-a]pyrazin-3-yl)ethynyl)phenyl)-4-((4-methylpiperazin-1-yl)methyl)-3-(trifluoromethyl)benzamide], for which the IC50 in [1] came to 88 nM; on ABL, 0.00333 µM; with K562 cells, 1.32 nM; with Ba/F3 parental cells it was 340 nM; in the experiment on Ba/F3 BCR-ABL cells it was 10.6 nM; against ABL^T315I it was 0.00344 µM.

As for `Cc1ccc(C(=O)Nc2cccc(C(F)(F)F)c2)cc1C#Cc1cnc2c(Nc3cnn(C)c3)ccnn12` [Example 14, 4-methyl-3-((8-((1-methyl-1H-pyrazol-4-yl)amino)imidazo[1,2-b]pyridazin-3-yl)ethynyl)-N-(3-(trifluoromethyl)phenyl)benzamide], the IC50 was 0.00049 µM at Ret; 24.9 nM in [1]; 15.8 nM in the experiment on Ba/F3 KIF5B-RET cells; 0.00491 µM at ABL; 0.97 nM in the experiment on K562 cells; 1550 nM with Ba/F3 parental cells. Further, the IC50 stood at 9.02 nM with Ba/F3 BCR-ABL cells, 0.00992 µM against RET^V804M, 0.0126 µM against ABL^T315I and 23 nM in the experiment on BaF3 FLT3-ITD cells.

As for `Cc1ccc(NC(=O)Nc2ccc(Cl)c(C(F)(F)F)c2)cc1C#Cc1cnc2c(Nc3cnn(C)c3)ccnn12` [Example 16, 1-(4-chloro-3-(trifluoromethyl)phenyl)-3-(4-methyl-3-((8-((1-methyl-1H-pyrazol-4-yl)amino)imidazo[1,2-b]pyridazin-3-yl)ethynyl)phenyl)urea], the values for the IC50 in the experiment with K562 cells and in the experiment on Ba/F3 parental cells were 12.1 nM and 1370 nM, respectively.

Consider `Cc1ccc(NC(=O)c2cccc(C(F)(F)F)c2)cc1C#Cc1cnc2c(Nc3cnn(C)c3)ccnn12` [Example 11, N-(4-methyl-3-((8-((1-methyl-1H-pyrazol-4-yl)amino)imidazo[1,2-b]pyridazin-3-yl)ethynyl)phenyl)-3-(trifluoromethyl)benzamide], for which the IC50 amounted to 144 nM in experiment [1]; 0.00418 µM on ABL; 0.26 nM with K562 cells; 770 nM in the experiment with Ba/F3 parental cells; 4.76 nM with Ba/F3 BCR-ABL cells; 0.0572 µM on ABL^T315I.

Take `Cc1ccc(NC(=O)c2ccnc(C(F)(F)F)c2)cc1C#Cc1cnc2c(Nc3cnn(C)c3)nccn12` [Example 3, N-(4-methyl-3-((8-((1-methyl-1H-pyrazol-4-yl)amino)imidazo[1,2-a]pyrazin-3-yl)ethynyl)phenyl)-2-(trifluoromethyl)isonicotinamide]: the IC50 was 0.00025 µM at Ret; 101 nM in [1]; 26.4 nM with Ba/F3 KIF5B-RET cells; 0.00189 µM against ABL; 0.16 nM in the experiment with K562 cells; 1340 nM with Ba/F3 parental cells. Besides, the IC50 with Ba/F3 BCR-ABL cells was found to be 4.75 nM; against RET^V804M, 0.0231 µM; at ABL^T315I it was 0.0275 µM; with BaF3 FLT3-ITD cells, 67.7 nM.

`COCCn1cc(Nc2nccn3c(C#Cc4cc(NC(=O)c5ccnc(C(F)(F)F)c5)ccc4C)cnc23)cn1` [Example 9, N-(3-((8-((1-(2-methoxyethyl)-1H-pyrazol-4-yl)amino)imidazo[1,2-a]pyrazin-3-yl)ethynyl)-4-methylphenyl)-2-(trifluoromethyl)isonicotinamide]: the IC50 against ABL was 0.00093 µM; with K562 cells it was 0.32 nM; in the experiment with Ba/F3 parental cells it was 4280 nM; with Ba/F3 BCR-ABL cells it was 2.75 nM; at ABL^T315I, 0.0199 µM.

`Cc1ccc(NC(=O)c2ccnc(C(F)(F)F)c2)cc1C#Cc1cnc2c(Nc3cnn(C)c3)ccnn12` [Example 12, N-(4-methyl-3-((8-((1-methyl-1H-pyrazol-4-yl)amino)imidazo[1,2-b]pyridazin-3-yl)ethynyl)phenyl)-2-(trifluoromethyl)isonicotinamide]: the IC50 against ABL came out at 0.00224 µM; with K562 cells it was 0.27 nM; in the experiment with Ba/F3 parental cells it was 1890 nM; in the experiment with Ba/F3 BCR-ABL cells, 7.75 nM.

As to `COCCn1cc(Nc2nccn3c(C#Cc4cc(NC(=O)c5cccc(C(F)(F)F)c5)ccc4C)cnc23)cn1` [Example 8, N-(3-((8-((1-(2-methoxyethyl)-1H-pyrazol-4-yl)amino)imidazo[1,2-a]pyrazin-3-yl)ethynyl)-4-methylphenyl)-3-(trifluoromethyl)benzamide], the IC50 in experiment [1] came out at 35.8 nM; against ABL, 0.00255 µM; with K562 cells, 0.96 nM; with Ba/F3 parental cells, 927 nM; with Ba/F3 BCR-ABL cells, 6.29 nM; on ABL^T315I it was 0.00647 µM.

As to `Cc1cn(-c2cc(C(=O)Nc3ccc(C)c(C#Cc4cnc5c(Nc6cnn(C)c6)nccn45)c3)cc(C(F)(F)F)c2)cn1` [Example 4, 3-(4-methyl-1H-imidazol-1-yl)-N-(4-methyl-3-((8-((1-methyl-1H-pyrazol-4-yl)amino)imidazo[1,2-a]pyrazin-3-yl)ethynyl)phenyl)-5-(trifluoromethyl)benzamide], the IC50 came out at 50.2 nM in experiment [1]; 0.00493 µM against ABL; 3.8 nM in the experiment with K562 cells; 314 nM in the experiment with Ba/F3 parental cells; 19.7 nM with Ba/F3 BCR-ABL cells; 0.00769 µM against ABL^T315I.
